Assay results: ChEMBL document CHEMBL4346721, “Small molecule PROTACs in targeted therapy: An emerging strategy to induce protein degradation” (Eur J Med Chem, 2019)
One block for each molecule: values may come before it.

Key:
[1] = molecular target: T1, von Hippel-Lindau disease tumor suppressor/Bromodomain-containing protein 2 (Homo sapiens, UniProt P25440+P40337); assay: Protac activity against VHL/BRD2 in human 22Rvl cells assessed as induction of BRD2 protein degradation by reverse phase protein array analysis; type: cell-based
[2] = molecular target: von Hippel-Lindau disease tumor suppressor/Myc proto-oncogene protein (Homo sapiens, UniProt P01106+P40337); assay: Protac activity against VHL/c-Myc (unknown origin) assessed as induction of c-Myc protein degradation by cell based reverse phase protein array analysis
[3] = molecular target: T2, von Hippel-Lindau disease tumor suppressor/Mitogen-activated protein kinase 14 (Homo sapiens, UniProt Q16539+P40337); assay: Protac activity at E3 ubiquitin ligase/p38alpha (unknown origin) assessed as p38alpha degradation by cell based assay
Target sequence in this assay (Q16539 whole entry): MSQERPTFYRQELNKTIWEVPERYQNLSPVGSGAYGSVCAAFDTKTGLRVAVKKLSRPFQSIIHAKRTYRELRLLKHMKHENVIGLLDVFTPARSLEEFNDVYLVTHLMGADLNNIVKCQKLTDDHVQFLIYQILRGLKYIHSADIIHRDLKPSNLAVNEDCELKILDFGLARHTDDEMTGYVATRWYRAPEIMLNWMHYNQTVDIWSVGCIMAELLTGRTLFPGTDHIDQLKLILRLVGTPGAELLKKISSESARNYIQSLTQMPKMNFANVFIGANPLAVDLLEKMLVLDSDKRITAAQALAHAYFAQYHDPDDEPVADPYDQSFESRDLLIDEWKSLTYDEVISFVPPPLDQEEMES
Target sequence in this assay (P40337 whole entry): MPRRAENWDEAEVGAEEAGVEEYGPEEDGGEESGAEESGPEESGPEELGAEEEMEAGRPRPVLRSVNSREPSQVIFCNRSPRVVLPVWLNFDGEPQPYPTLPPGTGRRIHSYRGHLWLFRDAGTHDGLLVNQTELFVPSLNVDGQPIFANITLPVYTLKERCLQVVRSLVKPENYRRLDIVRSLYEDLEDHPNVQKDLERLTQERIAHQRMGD

[4] = molecular target: T2, von Hippel-Lindau disease tumor suppressor/Mitogen-activated protein kinase 14; assay: Protac activity at E3 ubiquitin ligase/p38alpha (unknown origin) assessed as p38alpha degradation by cell based assay relative to control
[5] = molecular target: Estrogen receptor/E3 ubiquitin-protein ligase XIAP (Homo sapiens) (UniProt P03372+P98170); assay: Protac activity against xiap/ERalpha in human MCF7 cells assessed as reduction in ERalpha protein level at 3 nM relative to control; type: cell-based; design: scale not given: the % may be the effect or the level left
[6] = molecular target: Protein cereblon/Tyrosine-protein kinase BTK (Homo sapiens, UniProt Q06187+Q96SW2); assay: Protac activity at E3 ubiquitin ligase/BTK in human NAMALWA cells assessed as BTK degradation; type: cell-based
[7] = molecular target: T3, von Hippel-Lindau disease tumor suppressor/Mitogen-activated protein kinase 13 (Homo sapiens, UniProt O15264+P40337); assay: Protac activity at E3 ubiquitin ligase/p38delta (unknown origin) assessed as p38delta degradation by cell based assay
Target sequence in this assay (O15264 whole entry): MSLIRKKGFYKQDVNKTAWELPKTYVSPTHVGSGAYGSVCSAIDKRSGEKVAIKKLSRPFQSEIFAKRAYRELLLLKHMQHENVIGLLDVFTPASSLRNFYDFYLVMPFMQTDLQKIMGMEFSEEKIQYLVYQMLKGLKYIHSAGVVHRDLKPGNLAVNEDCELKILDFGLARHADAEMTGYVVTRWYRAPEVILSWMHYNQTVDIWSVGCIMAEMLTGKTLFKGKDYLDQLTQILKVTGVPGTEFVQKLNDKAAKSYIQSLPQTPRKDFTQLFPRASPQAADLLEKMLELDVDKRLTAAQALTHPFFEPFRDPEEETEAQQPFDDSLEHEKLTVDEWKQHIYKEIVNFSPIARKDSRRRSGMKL
Target sequence in this assay (P40337 whole entry): as the sequence (P40337 whole entry) above

[8] = molecular target: T3, von Hippel-Lindau disease tumor suppressor/Mitogen-activated protein kinase 13; assay: Protac activity at E3 ubiquitin ligase/p38delta (unknown origin) assessed as p38delta degradation by cell based assay relative to control
Target sequence in this assay (O15264 whole entry, looked up): as the sequence (O15264 whole entry) above
Target sequence in this assay (P40337 whole entry, looked up): as the sequence (P40337 whole entry) above

[9] = molecular target: von Hippel-Lindau disease tumor suppressor/Bromodomain-containing protein 4 (Homo sapiens, UniProt O60885+P40337); assay: Protac activity against VHL/BRD4 (unknown origin) assessed as induction of BRD4 protein degradation by cell based assay
[10] = molecular target: T1, von Hippel-Lindau disease tumor suppressor/Bromodomain-containing protein 2; assay: Protac activity against VHL/BRD2 (unknown origin) assessed as […] protein degradation by cell based assay
[11] = molecular target: von Hippel-Lindau disease tumor suppressor/Bromodomain-containing protein 3 (Homo sapiens, UniProt Q15059+P40337); assay: Protac activity against VHL/BRD3 (unknown origin) assessed as […] protein degradation by cell based assay
[12] = molecular target: T4, von Hippel-Lindau disease tumor suppressor/Androgen receptor (Homo sapiens, UniProt P10275+P40337); assay: Protac activity against VHL/androgen receptor in human VCaP cells assessed as induction of androgen receptor protein degradation by Western blot analysis; type: cell-based
[13] = molecular target: T4, von Hippel-Lindau disease tumor suppressor/Androgen receptor; assay: Protac activity against VHL/androgen receptor in human VCaP cells assessed as induction of androgen receptor protein degradation by Western blot analysis relative to control; type: cell-based
[14] = molecular target: Protein cereblon/Cyclin-dependent kinase 9 (Homo sapiens, UniProt P50750+Q96SW2); assay: Protac activity against E3 ubiquitin ligase/CDK9 in human MCF7 cells assessed as induction of CDK9 protein degradation; type: cell-based
[15] = molecular target: T5, von Hippel-Lindau disease tumor suppressor/Receptor-interacting serine/threonine-protein kinase 2 (Homo sapiens, UniProt O43353+P40337); assay: Protac activity against VHL/RIPK2 in human THP-1 cells assessed as induction of RIPK2 protein degradation at 10 nM relative to control; type: cell-based
[16] = molecular target: T5, von Hippel-Lindau disease tumor suppressor/Receptor-interacting serine/threonine-protein kinase 2; assay: Protac activity against VHL/RIPK2 in human THP-1 cells assessed as induction of RIPK2 protein degradation; type: cell-based
[17] = molecular target: von Hippel-Lindau disease tumor suppressor (Homo sapiens, UniProt P40337); assay: Binding affinity to VHL in human THP-1 cells; type: cell-based
[18] = molecular target: Protein cereblon/Peptidyl-prolyl cis-trans isomerase FKBP1A (Homo sapiens, UniProt P62942+Q96SW2); assay: Protac activity against CRBN/FKBP12 (unknown origin) assessed as FKBP12 degradation by cell based assay
[19] = molecular target: Protein cereblon/Histone acetyltransferase KAT2B (Homo sapiens, UniProt Q92831+Q96SW2); assay: Protac activity against E3 ubiquitin ligase/PCAF in human THP-1 cells assessed as induction of PCAF protein degradation; type: cell-based
[20] = molecular target: Protein cereblon/Histone acetyltransferase KAT2A (Homo sapiens, UniProt Q92830+Q96SW2); assay: Protac activity against E3 ubiquitin ligase/GCN5 in human THP-1 cells assessed as induction of GCN5 protein degradation; type: cell-based

T1 sequence (P25440 whole entry): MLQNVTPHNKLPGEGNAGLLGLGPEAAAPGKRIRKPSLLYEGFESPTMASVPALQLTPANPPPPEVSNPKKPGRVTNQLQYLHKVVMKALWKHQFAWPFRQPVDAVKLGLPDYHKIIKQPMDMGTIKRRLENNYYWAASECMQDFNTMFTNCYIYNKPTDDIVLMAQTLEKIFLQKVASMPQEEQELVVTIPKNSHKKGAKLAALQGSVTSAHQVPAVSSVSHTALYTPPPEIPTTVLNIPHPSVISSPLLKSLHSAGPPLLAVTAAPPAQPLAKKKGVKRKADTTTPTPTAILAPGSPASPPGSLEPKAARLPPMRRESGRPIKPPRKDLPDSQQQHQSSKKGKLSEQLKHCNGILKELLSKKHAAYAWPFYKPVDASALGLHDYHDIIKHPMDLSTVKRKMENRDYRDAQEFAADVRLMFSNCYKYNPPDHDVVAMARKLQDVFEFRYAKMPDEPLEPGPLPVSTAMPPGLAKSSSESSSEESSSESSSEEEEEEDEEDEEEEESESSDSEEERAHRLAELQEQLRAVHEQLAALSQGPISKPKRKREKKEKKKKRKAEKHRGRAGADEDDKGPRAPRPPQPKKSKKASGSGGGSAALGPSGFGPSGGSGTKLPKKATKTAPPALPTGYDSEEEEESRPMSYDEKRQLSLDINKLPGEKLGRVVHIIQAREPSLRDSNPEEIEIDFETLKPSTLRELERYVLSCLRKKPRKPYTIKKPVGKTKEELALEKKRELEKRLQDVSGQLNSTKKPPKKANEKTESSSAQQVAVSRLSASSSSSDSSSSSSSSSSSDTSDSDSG
T1 sequence (P40337 whole entry): as the sequence (P40337 whole entry) above
von Hippel-Lindau disease tumor suppressor/Myc proto-oncogene protein, sequence (P01106 whole entry): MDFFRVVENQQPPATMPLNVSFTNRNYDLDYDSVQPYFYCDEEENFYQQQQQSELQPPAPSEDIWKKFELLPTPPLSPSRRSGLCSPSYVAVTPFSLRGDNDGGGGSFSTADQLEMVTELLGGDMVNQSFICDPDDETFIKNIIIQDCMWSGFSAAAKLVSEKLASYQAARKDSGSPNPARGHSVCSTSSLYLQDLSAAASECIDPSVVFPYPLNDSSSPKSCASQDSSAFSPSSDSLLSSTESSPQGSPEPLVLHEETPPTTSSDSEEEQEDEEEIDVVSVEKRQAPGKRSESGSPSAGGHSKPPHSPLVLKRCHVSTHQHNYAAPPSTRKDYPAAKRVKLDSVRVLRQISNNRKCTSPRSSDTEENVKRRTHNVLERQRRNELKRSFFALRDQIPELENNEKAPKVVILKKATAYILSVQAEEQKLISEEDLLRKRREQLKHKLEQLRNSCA
von Hippel-Lindau disease tumor suppressor/Myc proto-oncogene protein, sequence (P40337 whole entry): as the sequence (P40337 whole entry) above
Estrogen receptor/E3 ubiquitin-protein ligase XIAP (Homo sapiens), sequence (P03372 whole entry, looked up): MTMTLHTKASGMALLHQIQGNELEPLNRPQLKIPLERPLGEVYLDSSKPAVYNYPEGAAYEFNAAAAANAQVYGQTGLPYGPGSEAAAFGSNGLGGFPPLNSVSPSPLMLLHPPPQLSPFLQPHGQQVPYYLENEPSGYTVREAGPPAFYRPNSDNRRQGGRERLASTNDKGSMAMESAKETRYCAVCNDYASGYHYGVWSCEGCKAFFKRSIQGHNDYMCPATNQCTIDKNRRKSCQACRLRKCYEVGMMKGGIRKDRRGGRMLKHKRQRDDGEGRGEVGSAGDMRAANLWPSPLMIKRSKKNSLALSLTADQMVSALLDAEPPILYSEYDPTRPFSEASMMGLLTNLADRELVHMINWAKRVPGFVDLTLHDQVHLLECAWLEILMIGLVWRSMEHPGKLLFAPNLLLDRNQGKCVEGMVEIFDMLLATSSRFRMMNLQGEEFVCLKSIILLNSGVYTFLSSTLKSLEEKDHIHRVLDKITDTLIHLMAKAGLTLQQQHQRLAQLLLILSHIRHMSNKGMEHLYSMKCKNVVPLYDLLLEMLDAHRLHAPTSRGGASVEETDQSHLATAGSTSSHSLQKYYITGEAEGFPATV
Estrogen receptor/E3 ubiquitin-protein ligase XIAP (Homo sapiens), sequence (P98170 whole entry, looked up): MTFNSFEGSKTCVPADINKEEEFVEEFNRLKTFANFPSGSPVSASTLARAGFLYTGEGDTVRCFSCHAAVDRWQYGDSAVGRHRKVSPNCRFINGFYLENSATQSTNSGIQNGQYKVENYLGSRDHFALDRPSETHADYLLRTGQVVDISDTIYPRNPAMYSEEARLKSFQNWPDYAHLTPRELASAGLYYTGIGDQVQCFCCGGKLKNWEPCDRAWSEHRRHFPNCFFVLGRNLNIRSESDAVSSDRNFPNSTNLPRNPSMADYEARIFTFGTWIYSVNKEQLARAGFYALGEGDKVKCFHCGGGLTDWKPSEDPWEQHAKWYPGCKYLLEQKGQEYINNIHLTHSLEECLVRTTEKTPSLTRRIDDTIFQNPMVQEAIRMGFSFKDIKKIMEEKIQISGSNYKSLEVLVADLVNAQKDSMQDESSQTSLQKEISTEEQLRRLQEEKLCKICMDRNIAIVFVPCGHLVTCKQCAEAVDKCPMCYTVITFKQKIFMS
von Hippel-Lindau disease tumor suppressor, sequence (P40337 whole entry): as the sequence (P40337 whole entry) above

DC50 [1]: < 5 nM
DC50 [2]: < 1 nM
SMILES: Cc1ncsc1-c1ccc([C@H](C)NC(=O)[C@@H]2C[C@@H](O)CN2C(=O)[C@@H](NC(=O)COCCCOCCNC(=O)C[C@@H]2N=C(c3ccc(Cl)cc3)c3c(sc(C)c3C)-n3c(C)nnc32)C(C)(C)C)cc1

DC50 [3]: 7.16 nM
Emax [4]: 97.4%
SMILES: COc1cc2c(Oc3ccc(NC(=O)C4(C(=O)Nc5ccc(F)cc5)CC4)cc3F)ccnc2cc1OCCCCOCCCCOCC(=O)N[C@H](C(=O)N1C[C@H](O)C[C@H]1C(=O)NCc1ccc(-c2scnc2C)cc1)C(C)(C)C

DC50 [7]: 46.2 nM
Emax [8]: 99.4%
SMILES: COc1cc2c(Oc3ccc(NC(=O)C4(C(=O)Nc5ccc(F)cc5)CC4)cc3F)ccnc2cc1OCCOCCOCCOc1cc(-c2scnc2C)ccc1CNC(=O)[C@@H]1C[C@@H](O)CN1C(=O)[C@H](C(C)C)N1Cc2ccccc2C1=O

Emax [15]: > 95%
DC50 [16]: 1.4 nM
IC50 [17]: 656 nM
SMILES: Cc1ncsc1-c1ccc(CNC(=O)[C@@H]2C[C@@H](O)CN2C(=O)[C@@H](NC(=O)COCCOCCOCCOCCOc2cc3nccc(Nc4ccc5scnc5c4)c3cc2S(=O)(=O)C(C)(C)C)C(C)(C)C)cc1

Second part, the molecule before the results:

SMILES: CC/C(=C(\c1ccc(O)cc1)c1ccc(OCCN(C)C(=O)COCCOCCOCCOc2cccc(C(=O)c3csc([C@@H]4CCCN4C(=O)[C@@H](NC(=O)[C@H](C)NC)C4CCCCC4)n3)c2)cc1)c1ccccc1
Activity [5]: 50%

SMILES: Nc1ncnc2c1c(-c1ccc(Oc3ccccc3)cc1)nn2C1CCN(CCOCCOCC(=O)Nc2ccc3c(c2)C(=O)N(C2CCC(=O)NC2=O)C3=O)CC1 (stereo not given)
DC50 [6]: 9.1 nM

SMILES: Cc1ncsc1-c1ccc(CNC(=O)[C@@H]2[C@@H](F)[C@@H](O)CN2C(=O)[C@@H](NC(=O)COCCOCCOCCNC(=O)C[C@@H]2N=C(c3ccc(Cl)cc3)c3c(sc(C)c3C)-n3c(C)nnc32)C(C)(C)C)cc1
DC50 [9]: < 3 nM
DC50 [10]: 10 nM
DC50 [11]: 10 nM

SMILES: Cc1ncsc1-c1ccc(CNC(=O)[C@@H]2C[C@@H](O)CN2C(=O)[C@@H](NC(=O)COCCCCOc2ccc(-c3ccc(N4C(=S)N(c5ccc(C#N)c(C(F)(F)F)c5)C(=O)C4(C)C)cc3)cc2)C(C)(C)C)cc1
DC50 [12]: 5 nM
Emax [13]: > 95%

SMILES: O=C1CCC(N2C(=O)c3cccc(NC(=O)CCCCCCCn4cc(COc5c(O)cc(O)c6c(=O)cc(-c7ccccc7)oc56)nn4)c3C2=O)C(=O)N1 (stereo not given)
IC50 [14]: 523 nM

SMILES: CCC(C)(C)C(=O)C(=O)N1CCCCC1C(=O)O[C@H](CCc1ccc(OC)c(OC)c1)c1cccc(NC(=O)CCC(=O)NCCCCNC(=O)COc2cccc3c2C(=O)N(C2CCC(=O)NC2=O)C3=O)c1 (stereo not given in full)
DC50 [18]: 10 nM

SMILES: CN1C[C@H](Nc2cnn(C)c(=O)c2Br)C[C@H](c2ccc(C(=O)N(C)CCCN(C)c3ccc(CCCOc4cccc5c4C(=O)N(C4CCC(=O)NC4=O)C5=O)cc3)cc2)C1 (mixture of isomers)
DC50 [19]: 1.5 nM
DC50 [20]: 3 nM
